In ChEMBL document CHEMBL6092149, “Discovery of 1(2H)-phthalazinone and 1(2H)-isoquinolinone derivatives as potent hematopoietic progenitor kinase 1 (HPK1) inhibitors” (Eur J Med Chem, 2024):
Active and inactive are the calls of the source. The calls are words filed in the database; no cut-off is given here.

Experiments:
[1] = molecular target: T1, Mitogen-activated protein kinase kinase kinase kinase 1 (Homo sapiens, UniProt Q92918); assay: Inhibition of N-terminal DYKDDDDK recombinant human HPK1 (1 to 346 residues) expressed in Sf21 insect cells preincubated for 10 min followed by fluorescein PKC and ATP addition and measured after 90 min by Envision2104 Multilabel Reader analysis
Target sequence in this assay (Q92918 whole entry, the tested form may be a part): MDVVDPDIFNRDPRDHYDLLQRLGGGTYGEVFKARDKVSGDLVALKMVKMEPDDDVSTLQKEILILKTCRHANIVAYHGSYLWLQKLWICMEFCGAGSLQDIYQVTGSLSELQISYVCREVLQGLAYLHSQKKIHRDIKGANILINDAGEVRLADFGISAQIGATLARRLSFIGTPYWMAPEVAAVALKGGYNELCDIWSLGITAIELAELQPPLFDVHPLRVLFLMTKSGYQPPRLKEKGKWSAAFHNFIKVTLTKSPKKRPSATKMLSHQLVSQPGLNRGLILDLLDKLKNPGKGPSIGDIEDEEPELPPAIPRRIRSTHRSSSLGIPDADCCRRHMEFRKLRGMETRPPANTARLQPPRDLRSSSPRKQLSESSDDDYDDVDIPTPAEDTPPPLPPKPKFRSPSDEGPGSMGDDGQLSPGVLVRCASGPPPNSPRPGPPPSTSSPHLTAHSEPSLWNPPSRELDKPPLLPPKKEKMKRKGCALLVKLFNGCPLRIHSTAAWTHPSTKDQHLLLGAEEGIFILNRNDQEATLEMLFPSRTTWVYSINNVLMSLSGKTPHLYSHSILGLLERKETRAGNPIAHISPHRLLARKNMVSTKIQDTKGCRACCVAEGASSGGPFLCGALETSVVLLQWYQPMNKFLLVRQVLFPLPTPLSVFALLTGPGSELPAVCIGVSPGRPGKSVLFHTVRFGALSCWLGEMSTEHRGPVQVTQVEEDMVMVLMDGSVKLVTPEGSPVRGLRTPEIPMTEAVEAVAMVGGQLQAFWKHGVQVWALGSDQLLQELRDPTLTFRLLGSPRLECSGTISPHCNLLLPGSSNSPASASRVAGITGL

[2] = molecular target: T1, Mitogen-activated protein kinase kinase kinase kinase 1; assay: Inhibition of HPK1 in human T cells assessed as increase in IL-2 secretion measured after 24 hrs by ELISA method; assay type: cell-based, T-cell; conditions: for Activity: T-cell
[3] = molecular target: T1, Mitogen-activated protein kinase kinase kinase kinase 1; assay: Inhibition of HPK1 in human Jurkat cells assessed as reduction in SLP76 phosphorylation pretreated for 1 hr followed by anti-CD3 addition and measured after 15 min by ELISA method; assay type: cell-based
Target sequence in this assay (Q92918 whole entry, the tested form may be a part): as above

[4] = molecular target: Voltage-gated inwardly rectifying potassium channel KCNH2 (Homo sapiens, UniProt Q12809); assay: Inhibition of HERG expressed in HEK293 cells at -80mV holding potential incubated for 24 to 48 hrs by whole-cell patch clamp method
[5] = AUC (0 to 24 hrs) in overnight fasted mouse at 10 mg/kg, po; assay type: ADME, organism-based; conditions: in vivo
[6] = Plasma Clearance in overnight fasted rat at 1 mg/kg, iv; assay type: ADME, organism-based
[7] = Cmax in overnight fasted mouse at 10 mg/kg, po; assay type: ADME, organism-based; conditions: in vivo
[8] = Half life in overnight fasted rat at 1 mg/kg, iv; assay type: ADME, organism-based; conditions: in vivo
[9] = molecular target: T1, Mitogen-activated protein kinase kinase kinase kinase 1; assay: Inhibition of HPK1 in human T cells assessed as increase in IL-2 secretion at 333 nM incubated for 2 hrs and measured after 24 hrs by ELISA method; assay type: cell-based; conditions: T-cell
Target sequence in this assay (Q92918 whole entry, looked up, the tested form may be a part): as the sequence (Q92918 whole entry, the tested form may be a part) above

[10] = AUC (0 to 24 hrs) in overnight fasted rat at 10 mg/kg, po; assay type: ADME, organism-based; conditions: in vivo
[11] = Plasma clearance in overnight fasted mouse at 1 mg/kg, iv; assay type: ADME, organism-based
[12] = Half life in overnight fasted mouse at 1 mg/kg, iv; assay type: ADME, organism-based; conditions: in vivo
[13] = Cmax in overnight fasted rat at 10 mg/kg, po; assay type: ADME, organism-based; conditions: in vivo
[14] = Oral bioavailability in in overnight fasted mouse at 10 mg/kg; assay type: ADME, organism-based; conditions: in vivo

Chain of Voltage-gated inwardly rectifying potassium channel KCNH2 (Q12809 whole entry): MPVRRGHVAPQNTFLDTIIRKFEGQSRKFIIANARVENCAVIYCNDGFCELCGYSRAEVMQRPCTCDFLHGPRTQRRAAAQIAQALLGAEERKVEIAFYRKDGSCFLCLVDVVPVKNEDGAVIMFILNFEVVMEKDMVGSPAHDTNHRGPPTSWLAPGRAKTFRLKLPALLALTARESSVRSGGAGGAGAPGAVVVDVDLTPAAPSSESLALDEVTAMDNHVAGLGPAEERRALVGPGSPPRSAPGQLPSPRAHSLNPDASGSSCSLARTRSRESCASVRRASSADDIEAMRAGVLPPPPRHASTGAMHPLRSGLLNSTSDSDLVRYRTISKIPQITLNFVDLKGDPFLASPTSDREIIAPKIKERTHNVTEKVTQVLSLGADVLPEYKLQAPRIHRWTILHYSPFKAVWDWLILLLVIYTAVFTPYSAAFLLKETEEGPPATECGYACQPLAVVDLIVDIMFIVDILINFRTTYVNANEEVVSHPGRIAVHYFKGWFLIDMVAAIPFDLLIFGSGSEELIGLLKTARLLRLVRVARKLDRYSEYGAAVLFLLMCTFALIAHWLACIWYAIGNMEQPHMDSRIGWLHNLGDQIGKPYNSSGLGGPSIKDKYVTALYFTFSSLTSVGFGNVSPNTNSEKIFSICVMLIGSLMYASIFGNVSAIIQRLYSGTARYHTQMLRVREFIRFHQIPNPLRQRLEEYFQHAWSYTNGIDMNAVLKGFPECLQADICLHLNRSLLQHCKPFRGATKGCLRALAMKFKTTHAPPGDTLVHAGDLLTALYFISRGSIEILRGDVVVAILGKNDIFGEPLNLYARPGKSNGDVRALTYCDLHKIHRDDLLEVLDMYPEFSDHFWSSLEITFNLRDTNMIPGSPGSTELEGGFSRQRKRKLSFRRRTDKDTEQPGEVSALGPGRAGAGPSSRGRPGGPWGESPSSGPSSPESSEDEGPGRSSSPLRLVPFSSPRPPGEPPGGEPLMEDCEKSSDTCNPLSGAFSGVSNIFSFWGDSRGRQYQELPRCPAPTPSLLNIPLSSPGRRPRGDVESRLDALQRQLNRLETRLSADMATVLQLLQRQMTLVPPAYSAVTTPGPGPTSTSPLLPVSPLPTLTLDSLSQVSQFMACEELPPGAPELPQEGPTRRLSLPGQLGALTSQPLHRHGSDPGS

| SMILES | IC50 [1] [nM] | EC50 [2] [nM] | Activity [2] | EC50 [3] [nM] | other results |
| --- | --- | --- | --- | --- | --- |
| COC1CCN(Cc2nc(Nc3ccc(-c4cnc5cc(F)ccn45)c4cn[nH]c(=O)c34)ccc2C2CCOCC2)C1 (configuration not stated) | 24.4 | 254 | Dose-dependent-effect | 32 | – |
| CN(C)Cc1nc(Nc2ccc(-c3cnc4cc(F)ccn34)c3c2C(=O)NC3)ccc1C1CCOCC1 | – | – | – | – | IC50 [4]: 2850 nM; AUC(0-t) [5]: 1350 ng·h/mL; clearance [6]: 230 mL/min/kg; Cmax [7]: 282 ng/mL; half-life [8]: 84 min; Activity [9]: Active; AUC(0-t) [10]: 312 ng·h/mL; clearance [11]: 269 mL/min/kg; half-life [12]: 30 min; Cmax [13]: 74 ng/mL |
| O=C(NCc1nc(Nc2ccc(-c3cnc4cc(F)ccn34)c3cn[nH]c(=O)c23)ccc1C1CCOCC1)NC1CC1 | > 1000 | – | – | – | – |
| O=c1[nH]ncc2c(-c3cnc4cc(F)ccn34)ccc(Nc3ccc(C4CCOCC4)c(CN4CCC(O)C4)n3)c12 (configuration not stated) | 39.1 | 223 | Dose-dependent-effect | – | – |

Now from value to molecule, other results behind:

| IC50 [1] [nM] | EC50 [2] [nM] | Activity [2] | EC50 [3] [nM] | SMILES | other results |
| --- | --- | --- | --- | --- | --- |
| 539 | – | – | – | CN(C)Cc1nc(Nc2ncc(-c3cnc4cc(F)ccn34)c3cn[nH]c(=O)c23)ccc1C1CCOCC1 | – |
| 20 | 220 | Dose-dependent-effect | 76 | CN(C)Cc1nc(Nc2ccc(-c3cnc4cc(F)ccn34)c3cc[nH]c(=O)c23)ccc1C1CCOCC1 | AUC(0-t) [5]: 892 ng·h/mL; Cmax [7]: 308 ng/mL; clearance [11]: 159 mL/min/kg; half-life [12]: 24 min; bioavailability [14]: 86% |
| 34 | 373 | Dose-dependent-effect | 55 | O=c1[nH]ncc2c(-c3cnc4cc(F)ccn34)ccc(Nc3ccc(C4CCOCC4)c(CN4CC[C@@H](F)C4)n3)c12 | – |
